# Assays:
# [1] = In vitro 2-methyl-6-phytylplastoquinol methyltransferase assay of E. coli expressed SLL0418; assay type: biochemical, Synechocystis; conditions: E. coli extract
# Description: (§1) A second approach to characterizing the Synechocystis genes and proteins involved in tocopherol biosynthesis involved the expression and biochemical analysis of these genes in E. coli. The Synechocystis SLL0418 gene sequence was subcloned from pSLL0418-1 as a Nde1/Hind3 fragment into the Nde1 and Hind3 sites of the E. coli expression vector, pET30B. The resulting plasmid construct was designated p041798 and was transformed into the E. coli strain BL21(DE3)pLysS. Protein expression was induced with 1 mM isopropylthio-b-galactoside (IPTG) in the cells transformed with p041798 and cells transformed with the empty pET30B vector. Induced cultures were grown for 3 hours at 28° C. in a shaking incubator after which the cells were harvested by centrifugation at 8,000 g for 10 minutes at 4° C. and stored at […] The cell pellets were resuspended in 50 mM Tris-HCl pH 8.0, 5 mM DTT, 1 mM PMSF and homogenized with four 10 second burst with a sonicator. Triton X 100 was then added to a final concentration of 1% and the mixture was incubated on ice for 30 minutes. The insoluble material was then removed by centrifugation at 40,000 g for 30 minutes and the supernatant was saved for methyltransferase assays.
# A mixture of 6 different isomers of methylphytylplastoquinone was synthesized as described by Henry et al. (1987) Biochem J 242: 367-373. […]
# [2] = In vitro 2-methyl-6-solanylplastoquinol methyltransferase assay of E. coli expressed SLL0418; assay type: biochemical, Synechocystis; conditions: E. coli extract
# Description: as §1
# The 2-methyl-6-solanylplastoquinol substrate was purified from Iris bulbs. One hundred gm of iris bulbs were homogenized in 500 mL acetone. […]
substance,measurement,setting,value
2-methyl-6-phytylplastoquinol/2-methyl-6-solanylplastoquinol-9 methyltransferase [SLL0418],"methylation of 2-methyl-6-phytylplastoquinol to form 2,3-dimethylphytlyplastoquinol",[1]; result in words,able to methylate
same,"amount of 14C labeled 2,3-dimethyl-6-phytylplastoquinol product produced","[1]; substrate 2-methyl-6-phytylplastoquinol, [14C-methyl]-S-adenosylmethionine, 30 minutes, room temperature",484 CPM
same,"methylation of 2-methyl-6-solanylplastoquinol to form 2,3-dimethylsolanylplastoquinol",[2]; result in words,able to methylate
same,"amount of 14C labeled 2,3-dimethylsolanylplastoquinol product produced","[2]; substrate 2-methyl-6-solanylplastoquinol, [14C-methyl]-S-adenosylmethionine, 30 minutes, room temperature",174 CPM

# — US6448475B1, “Manipulation of tocopherol levels in transgenic plants by transformation with a synechocystis 2-methyl-6-phytylplastoquinol/2-methyl-6-solanylplastoquinol-9 methyltransferase” (The University and Community College System of Nevada, priority 1998, dated 2002)
